The text below walks through data of patent US20190029301A1, “USE OF LONG-TERM FASTING MIMICKING AS DIETARY TREATMENT FOR MULTIPLE MYELOMA AND OTHER CANCERS” (UNIVERSITY OF SOUTHERN CALIFORNIA, priority 2016, published 2019).

For data set [1] the following is noted: Biaxin competes for the liver detoxification system that inactivates dexamethasone; cited from earlier work.
Data set [2] concerns multiple myeloma. The note with it: cited from earlier work.
Data set [3] deals with multiple myeloma. Description: free kappa light chain tumor marker in a multiple myeloma patient (case report). The note with it: for response of free kappa light chain tumor marker / myeloma cells to the regimen: single patient, successive regimens 2006-2012 and later. It counts as in vivo, human.
For data set [4] the following is noted: cited from earlier work.
The nature of data set [5]: side effects / peripheral neuropathy in the treated multiple myeloma patient. It counts as in vivo, human. Here is the method:
The patient had previously only used IV bortezomib, since it had been effective up to that point. Resistance to bortezomib is thought to result from overproduction of proteosomal subunits, that then require a higher concentration of drug before enough subunits are blocked to reduce the degradation of misfolded myeloma antibodies. The highest recommended dose of bortezomib is 1.3 mg/m^2, since the next higher dose of 1.7 mg/m^2 regularly produces grade 3-4 peripheral neuropathy. […] The patient reasoned that reducing the toxicity of bortezomib by using SubQ rather than IV and using the FMED to induce protective stress-resistance pathways in their neural and supporting glial cells might allow the use of “toxic” doses of bortezomib. […] The first two cycles were performed to verify whether the approach worked. […] Since the “toxic” bortezomib dose was essentially monotherapy, a different IMID was added for a third cycle in the hope that the patient's MM cells would be sensitive and one would be treating with at least two drugs. One third of patients resistant to lenalidomide respond to pomalidomide, which was thus added during the third cycle.

Setting [6] is: SubQ compared with IV bortezomib.

The structures appear in SMILES notation.

Consider `CC[C@H]1OC(=O)[C@H](C)[C@@H](O[C@H]2C[C@@](C)(OC)[C@@H](O)[C@H](C)O2)[C@H](C)[C@@H](O[C@@H]2O[C@H](C)C[C@H](N(C)C)[C@H]2O)[C@](C)(OC)C[C@@H](C)C(=O)[C@H](C)[C@@H](O)[C@]1(C)O` [Biaxin], for which the half-life of dexamethasone entry in data set [1] is “increases”.

`CC(C)C[C@H](NC(=O)[C@H](Cc1ccccc1)NC(=O)c1cnccn1)B(O)O` [bortezomib]: the “effectiveness of SubQ versus IV administration” value in the data set with multiple myeloma [2] (setting [6]) was “as effective as IV bortezomib”. In addition, in the data set with multiple myeloma [3] (SubQ bortezomib at "toxic" dose 1.7 mg/m^2 combined with FMED, FIG. 3), the tumor markers response entry is recorded as “rapid drop”. Moreover, the bortezomib sensitivity result in the data set on multiple myeloma [3] (subcutaneous bortezomib 1.7 mg/m^2 with FMED, bortezomib-resistant patient) is recorded as “restore bortezomib sensitivity”. Also, the “side effects of SubQ versus IV administration” value in data set [4] (setting [6]) is “reduced side effects”. Also, the peripheral neuropathy grade in data set [4] (dose of 1.7 mg/m^2) is 3-4. For the same compound, the side-effects entry in data set [5] (subcutaneous bortezomib 1.7 mg/m^2 with FMED) is “minimal side-effects”. Also, the peripheral neuropathy progression entry in data set [5] (three cycles of SubQ "toxic" bortezomib + FMED (pomalidomide added in third cycle)) was “only minor progression”.

Turning to `CC(C)C[C@H](NC(=O)[C@H](CCc1ccccc1)NC(=O)CN1CCOCC1)C(=O)N[C@@H](Cc1ccccc1)C(=O)N[C@@H](CC(C)C)C(=O)[C@@]1(C)CO1` [carfilzomib], the “response of free kappa light chain tumor marker / myeloma cells to the regimen” value in the data set with multiple myeloma [3] is “ineffective”.

With `Nc1cccc2c1C(=O)N(C1CCC(=O)NC1=O)C2=O` (centres unmarked) [pomalidomide], the “fraction of patients resistant to lenalidomide that respond” value in the data set on multiple myeloma [2] (lenalidomide-resistant patients) is given as “One third”.

Turning to `Nc1cccc2c1CN(C1CCC(=O)NC1=O)C2=O` (centres unmarked) [revlimid, lenalidomide], the “response of free kappa light chain tumor marker / myeloma cells to the regimen” value in the data set on multiple myeloma [3] is on record as “developed resistance”.
